Target: EGFR (UniProt P00533)
Sequence (P00533 whole entry, looked up): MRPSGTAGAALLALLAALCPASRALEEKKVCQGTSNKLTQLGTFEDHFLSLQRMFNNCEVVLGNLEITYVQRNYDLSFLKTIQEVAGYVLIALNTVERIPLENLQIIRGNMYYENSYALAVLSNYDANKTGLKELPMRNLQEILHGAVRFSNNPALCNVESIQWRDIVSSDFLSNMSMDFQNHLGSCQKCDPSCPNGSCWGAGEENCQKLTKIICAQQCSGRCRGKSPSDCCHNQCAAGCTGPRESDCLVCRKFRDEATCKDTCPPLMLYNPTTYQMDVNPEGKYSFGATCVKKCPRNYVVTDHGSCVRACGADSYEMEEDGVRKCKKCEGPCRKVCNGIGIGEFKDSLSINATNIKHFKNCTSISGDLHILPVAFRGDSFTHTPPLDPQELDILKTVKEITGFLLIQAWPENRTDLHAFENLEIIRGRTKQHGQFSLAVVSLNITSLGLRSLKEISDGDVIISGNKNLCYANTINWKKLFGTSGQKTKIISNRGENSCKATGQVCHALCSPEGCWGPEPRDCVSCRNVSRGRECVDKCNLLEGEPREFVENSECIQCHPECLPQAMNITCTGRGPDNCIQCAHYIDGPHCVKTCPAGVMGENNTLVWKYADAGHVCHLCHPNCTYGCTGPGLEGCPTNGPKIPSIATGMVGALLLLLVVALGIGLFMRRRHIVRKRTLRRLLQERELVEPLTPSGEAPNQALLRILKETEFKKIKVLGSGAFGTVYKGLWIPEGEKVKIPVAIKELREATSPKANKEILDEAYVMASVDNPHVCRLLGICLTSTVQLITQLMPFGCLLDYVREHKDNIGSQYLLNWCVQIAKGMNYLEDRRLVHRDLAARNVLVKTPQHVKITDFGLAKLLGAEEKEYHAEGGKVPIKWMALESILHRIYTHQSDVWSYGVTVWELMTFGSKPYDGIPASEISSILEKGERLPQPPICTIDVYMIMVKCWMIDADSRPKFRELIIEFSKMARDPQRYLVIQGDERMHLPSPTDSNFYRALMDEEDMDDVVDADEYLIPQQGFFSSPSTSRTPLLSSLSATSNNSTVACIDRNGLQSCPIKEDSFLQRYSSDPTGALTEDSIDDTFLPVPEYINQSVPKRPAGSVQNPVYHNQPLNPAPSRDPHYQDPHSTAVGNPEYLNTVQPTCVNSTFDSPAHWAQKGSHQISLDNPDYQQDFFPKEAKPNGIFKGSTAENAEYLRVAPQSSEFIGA

Structure (SMILES): CCNC(=O)Nc1csc2ccc(OC)cc2c1=O
- IC50: > 100 µM

Structure (SMILES): CN(C)C(=O)Nc1coc2ccccc2c1=O
- IC50: > 100 µM

Structure (SMILES): CN(C)Cc1coc2ccccc2c1=O
- IC50: > 100 µM

Structure (SMILES): O=C(O)C(=O)Nc1csc2ccccc2c1=O
- IC50: > 100 µM

Structure (SMILES): O=C(O)C(=O)Nc1cc(=O)c2ccccc2s1
- IC50: > 100 µM

Structure (SMILES): CNC(=O)Nc1csc2ccccc2c1=O
- IC50: > 100 µM

Structure (SMILES): O=C(CCO)Nc1csc2ccccc2c1=O
- IC50: > 100 µM

Structure (SMILES): CNC(=O)Nc1coc2ccccc2c1=O
- IC50: > 100 µM

Structure (SMILES): CC(C)NC(=O)Nc1coc2ccccc2c1=O
- IC50: > 100 µM

Structure (SMILES): CCOC(=O)NC(=O)Nc1csc2ccccc2c1=O
- IC50: > 100 µM

Structure (SMILES): O=c1cc(-c2ccc(O)cc2)oc2cc(O)cc(O)c12
- IC50: 25 µM

Structure (SMILES): CCCCNC(=O)Nc1coc2ccccc2c1=O
- IC50: > 100 µM

Structure (SMILES): CCNC(=O)Nc1coc2ccccc2c1=O
- IC50: > 100 µM

Structure (SMILES): CCCCNC(=O)Nc1csc2ccccc2c1=O
- IC50: > 100 µM

Structure (SMILES): CC(C)(C)NC(=O)Nc1coc2ccccc2c1=O
- IC50: > 100 µM

Structure (SMILES): CCNC(=O)Nc1csc2ccccc2c1=O
- IC50: > 100 µM

Structure (SMILES): COC(=O)C(=O)Nc1csc2ccccc2c1=O
- IC50: > 100 µM

Structure (SMILES): CCNC(=O)Nc1csc2ccc(F)cc2c1=O
- IC50: > 100 µM

Structure (SMILES): CCNC(=O)Nc1csc2ccc(C)cc2c1=O
- IC50: > 100 µM

Structure (SMILES): CCC(=O)Nc1csc2ccccc2c1=O
- IC50: > 100 µM

Structure (SMILES): CCNC(=O)NC1=CS(=O)(=O)c2ccccc2C1=O
- IC50: > 100 µM

Structure (SMILES): O=c1cc(-c2ccccc2)oc2ccccc12
- IC50: 50 µM

Reference: the Kinase Knowledgebase extract (Sharma et al. 2016)
